Reference: patent US11091501B2, “Heterocyclic compounds as RSV inhibitors” (Enanta Pharmaceuticals, Inc., priority 2017, dated 2021)

System: Human RSV-A (“Long” strain)
Test: RSV in vitro cytoprotection assay (CPE, ATPlite) in HEp-2 cells
Assay type: cell-based
Conditions: human respiratory syncytial virus, 96 h; HEp-2 cells, 4-day incubation, ATPlite readout; read-out: Human RSV-A (“Long” strain) EC50
How it was run: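 HEp-2 cells (8,000/well) given 2-fold serial compound dilutions in duplicate, then infected with sucrose-stabilised RSV-A Long stock. After 4 days, cell viability read by ATPlite luminescence, with a parallel uninfected plate for cytotoxicity. EC50 binned A<0.01 μM, B 0.01-0.05 μM, C>0.05 μM.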

EC50 [µM] | SMILES
> 0.05 | O=C(Nc1ccc(C(=O)N2CCc3cc(-c4nnco4)sc3-c3ccc(F)cc32)cc1)c1cccnc1N1CC2(CCOCC2)C1 [Example 142]
< 0.01 | Cc1cnc(N2CC3(CCOCC3)C2)c(C(=O)Nc2ccc(C(=O)N3CCc4c(sc(-c5nnco5)c4F)-c4ccc(F)cc43)cc2)c1 [Example 143]
0.01 to 0.05 | O=C(Nc1c(F)cc(F)cc1Cl)c1cc2c(s1)-c1ccc(F)cc1N(C(=O)c1ccc(NC(=O)c3cc(C(F)F)cnc3N3CC4(CCOCC4)C3)cc1)CC2 [Example 144]
0.01 to 0.05 | O=C(Nc1c(F)cccc1Cl)c1cc2c(s1)-c1ccc(F)cc1N(C(=O)c1ccc(NC(=O)c3cc(C(F)F)cnc3N3CC4(CCOCC4)C3)cc1)CC2 [Example 145]
0.01 to 0.05 | O=C(Nc1c(F)cccc1F)c1cc2c(s1)-c1ccc(F)cc1N(C(=O)c1ccc(NC(=O)c3cc(C(F)F)cnc3N3CC4(CCOCC4)C3)cc1)CC2 [Example 146]
< 0.01 | Cc1ccc(C(=O)Nc2ccc(C(=O)N3CCc4cc(-c5nc6ccccc6[nH]5)sc4-c4ccc(F)cc43)cc2)c(N2CC3(CCOCC3)C2)n1 [Example 147]
0.01 to 0.05 | Cc1ccc(C(=O)Nc2ccc(C(=O)N3CCc4cc(-c5nc6cccc(Cl)c6[nH]5)sc4-c4ccc(F)cc43)cc2)c(N2CC3(CCOCC3)C2)n1 [Example 148]
< 0.01 | Cc1ccc(C(=O)Nc2ccc(C(=O)N3CCc4cc(-c5nc6cccc(F)c6[nH]5)sc4-c4ccc(F)cc43)cc2)c(N2CC3(CCOCC3)C2)n1 [Example 149]
< 0.01 | Cc1cnc(N2CC3(CCOCC3)C2)c(C(=O)Nc2ccc(C(=O)N3CCc4cc(-c5nnc(C)s5)sc4-c4ccc(F)cc43)cc2)c1 [Example 150]
< 0.01 | Cc1cnc(N2CC3(CCOCC3)C2)c(C(=O)Nc2ccc(C(=O)N3CCc4cc(-c5ncc(C)s5)sc4-c4ccc(F)cc43)cc2)c1 [Example 151]
0.01 to 0.05 | Cc1cnc(N2CC3(CCOCC3)C2)c(C(=O)Nc2ccc(C(=O)N3CCc4cc(-c5nc(C)cs5)sc4-c4ccc(F)cc43)cc2)c1 [Example 152]
0.01 to 0.05 | Cc1cnc(N2CC3(CCOCC3)C2)c(C(=O)Nc2ccc(C(=O)N3CCc4cc(-c5nc(C)c(C)s5)sc4-c4ccc(F)cc43)cc2)c1 [Example 153]
< 0.01 | Cc1cnc(N2CC3(CCOCC3)C2)c(C(=O)Nc2ccc(C(=O)N3CCc4cc(-c5nccs5)sc4-c4ccc(F)cc43)cc2)c1 [Example 154]
< 0.01 | Cc1cnc(N2CC3(CCOCC3)C2)c(C(=O)Nc2ccc(C(=O)N3CCc4cc(-c5ncns5)sc4-c4ccc(F)cc43)cc2)c1 [Example 155]
0.01 to 0.05 | Cc1cnc(N2CC3(CCOCC3)C2)c(C(=O)Nc2ccc(C(=O)N3CCc4cc(-c5ncc(C)o5)sc4-c4ccc(F)cc43)cc2)c1 [Example 156]
0.01 to 0.05 | Cc1cnc(N2CC3(CCOCC3)C2)c(C(=O)Nc2ccc(C(=O)N3CCc4cc(-c5nc(C)co5)sc4-c4ccc(F)cc43)cc2)c1 [Example 157]
< 0.01 | Cc1cnc(N2CC3(CCOCC3)C2)c(C(=O)Nc2ccc(C(=O)N3CCc4cc(-c5nc(C)c(C)[nH]5)sc4-c4ccc(F)cc43)cc2)c1 [Example 158]
< 0.01 | Cc1cnc(N2CC3(CCOCC3)C2)c(C(=O)Nc2ccc(C(=O)N3CCc4cc(-c5ccnn5C)sc4-c4ccc(F)cc43)cc2)c1 [Example 161]
< 0.01 | Cc1cnc(N2CC3(CCOCC3)C2)c(C(=O)Nc2ccc(C(=O)N3CCc4cc(-c5ccncc5F)sc4-c4ccc(F)cc43)cc2)c1 [Example 162]
< 0.01 | Cc1cnc(N2CC3(CCOCC3)C2)c(C(=O)Nc2ccc(C(=O)N3CCc4cc(-c5ccc(F)cn5)sc4-c4ccc(F)cc43)cc2)c1 [Example 163]
< 0.01 | Cc1cnc(N2CC3(CCOCC3)C2)c(C(=O)Nc2ccc(C(=O)N3CCc4cc(-c5cccnc5F)sc4-c4ccc(F)cc43)cc2)c1 [Example 164]

EC50 [µM] | SMILES
< 0.01 | Cc1cnc(N2CC3(CCOCC3)C2)c(C(=O)Nc2ccc(C(=O)N3CCc4cc(-c5ncccc5F)sc4-c4ccc(F)cc43)cc2)c1 [Example 165]
< 0.01 | Cc1cnc(N2CC3(CCOCC3)C2)c(C(=O)Nc2ccc(C(=O)N3CCc4cc(-c5ccncc5)sc4-c4ccc(F)cc43)cc2)c1 [Example 166]
< 0.01 | Cc1cnc(N2CC3(CCOCC3)C2)c(C(=O)Nc2ccc(C(=O)N3CCc4cc(-c5cccnc5)sc4-c4ccc(F)cc43)cc2)c1 [Example 167]
< 0.01 | Cc1cnc(N2CC3(CCOCC3)C2)c(C(=O)Nc2ccc(C(=O)N3CCc4cc(-c5ccccn5)sc4-c4ccc(F)cc43)cc2)c1 [Example 168]
< 0.01 | Cc1cnc(N2CC3(CCOCC3)C2)c(C(=O)Nc2ccc(C(=O)N3CCc4cc(-c5ncco5)sc4-c4ccc(F)cc43)cc2)c1 [Example 169]
< 0.01 | Cc1cnc(N2CC3(CCOCC3)C2)c(C(=O)Nc2ccc(C(=O)N3CCc4cc(-c5c[nH]nc5C5CC5)sc4-c4ccc(F)cc43)cc2)c1 [Example 170]
< 0.01 | CCn1nccc1-c1cc2c(s1)-c1ccc(F)cc1N(C(=O)c1ccc(NC(=O)c3cc(C)cnc3N3CC4(CCOCC4)C3)cc1)CC2 [Example 171]
< 0.01 | Cc1cnc(N2CC3(CCOCC3)C2)c(C(=O)Nc2ccc(C(=O)N3CCc4cc(-c5cn(C)nc5N)sc4-c4ccc(F)cc43)cc2)c1 [Example 172]
< 0.01 | Cc1cnc(N2CC3(CCOCC3)C2)c(C(=O)Nc2ccc(C(=O)N3CCc4cc(-c5c[nH]c6ncccc56)sc4-c4ccc(F)cc43)cc2)c1 [Example 173]
> 0.05 | Cc1cnc(N2CC3(CCOCC3)C2)c(C(=O)Nc2ccc(C(=O)N3CCc4cc(-c5c[nH]c6ccc(Cl)cc56)sc4-c4ccc(F)cc43)cc2)c1 [Example 174]
> 0.05 | Cc1cnc(N2CC3(CCOCC3)C2)c(C(=O)Nc2ccc(C(=O)N3CCc4cc(-c5c[nH]c6c(Cl)cccc56)sc4-c4ccc(F)cc43)cc2)c1 [Example 175]
> 0.05 | Cc1cnc(N2CC3(CCOCC3)C2)c(C(=O)Nc2ccc(C(=O)N3CCc4cc(-c5c[nH]c6ccc(C)cc56)sc4-c4ccc(F)cc43)cc2)c1 [Example 176]
0.01 to 0.05 | Cc1cnc(N2CC3(CCOCC3)C2)c(C(=O)Nc2ccc(C(=O)N3CCc4cc(-c5c[nH]c6c(C)cccc56)sc4-c4ccc(F)cc43)cc2)c1 [Example 177]
< 0.01 | Cc1cnc(N2CC3(CCOCC3)C2)c(C(=O)Nc2ccc(C(=O)N3CCc4cc(-c5ccc6[nH]ncc6c5)sc4-c4ccc(F)cc43)cc2)c1 [Example 178]
< 0.01 | Cc1cnc(N2CC3(CCOCC3)C2)c(C(=O)Nc2ccc(C(=O)N3CCc4cc(-c5cnc6[nH]ncc6c5)sc4-c4ccc(F)cc43)cc2)c1 [Example 179]
0.01 to 0.05 | Cc1cnc(N2CC3(CCOCC3)C2)c(C(=O)Nc2ccc(C(=O)N3CCc4cc(-c5c[nH]c6cccnc56)sc4-c4ccc(F)cc43)cc2)c1 [Example 180]
< 0.01 | Cc1cnc(N2CC3(CCOCC3)C2)c(C(=O)Nc2ccc(C(=O)N3CCc4cc(-c5n[nH]c6ccccc56)sc4-c4ccc(F)cc43)cc2)c1 [Example 181]
< 0.01 | Cc1cnc(N2CC3(CCOCC3)C2)c(C(=O)Nc2ccc(C(=O)N3CCc4cc(-c5ccc[nH]c5=O)sc4-c4ccc(F)cc43)cc2)c1 [Example 182]
< 0.01 | Cc1cnc(N2CC3(CCOCC3)C2)c(C(=O)Nc2ccc(C(=O)N3CCc4cc(-c5cc[nH]c(=O)c5)sc4-c4ccc(F)cc43)cc2)c1 [Example 183]
< 0.01 | Cc1cnc(N2CC3(CCOCC3)C2)c(C(=O)Nc2ccc(C(=O)N3CCc4cc(-c5ccc(=O)[nH]c5)sc4-c4ccc(F)cc43)cc2)c1 [Example 184]
